Laboratory results as given in patent US20110142848A1, “ANTI-BETA-2-MICROGLOBULIN AGENTS AND THE USE THEREOF” (priority 2008, published 2011).

Legend:
C4-2B (KD) cells = assay: MTS cell proliferation assay, C4-2B (KD); assay type: cell-based, human; conditions: C4-2B (KD) versus neo-control
Method: For example, six thousand (6,000) cells per well may be plated in 96 well plates, which may be cultured in 1% DCC-FBS (dextran-coated, charcoal-treated fetal bovine serum) containing T medium (C4-2B) or serum-free T medium (PC3) with 5% CO2 at 37° C. overnight. Cells may then be treated with anti-β2-M mAbs for 48 h. […] Two to four days post-treatment, cell growth may be determined by MTS assay using the CellTiter96 Aqueous One Solution Cell Proliferation Assay (Promega) according to the manufacturer's instructions.

neo-control cells = assay: MTS cell proliferation assay, neo-control cells; assay type: cell-based, human
Method: For example, six thousand (6,000) cells per well may be plated in 96 well plates, which may be cultured in 1% DCC-FBS (dextran-coated, charcoal-treated fetal bovine serum) containing T medium (C4-2B) or serum-free T medium (PC3) with 5% CO2 at 37° C. overnight. Cells may then be treated with anti-β2-M mAbs for 48 h. Chemotherapeutic agents, such as PS-341, gemcitabine, cisplatin, doxorubicin, taxotere, or 17-AAG, may then be added to the culture media. Two to four days post-treatment, cell growth may be determined by MTS assay using the CellTiter96 Aqueous One Solution Cell Proliferation Assay (Promega) according to the manufacturer's instructions. Results from these experiments are shown in FIGS. 7-21, with various chemotherapeutic agents.

Row | SMILES | sensitivity to growth inhibition, β2-M knockdown cells compared with neo-control cells (C4-2B (KD) cells) | growth inhibition by agent alone (neo-control cells; PS-341 at concentrations of 1 (AM or higher)) | growth inhibition by agent alone (neo-control cells; gemcitabine at lower doses (10 μM or lower))
1 | CC(=O)O[C@@]12CO[C@@H]1C[C@H](O)[C@@]1(C)C(=O)[C@H](O)C3=C(C)[C@@H](OC(=O)[C@H](O)[C@@H](NC(=O)OC(C)(C)C)c4ccccc4)C[C@@](O)([C@@H](OC(=O)c4ccccc4)[C@H]21)C3(C)C [taxotere] | more sensitive | – | –
2 | CC(C)C[C@H](NC(=O)[C@H](Cc1ccccc1)NC(=O)c1cnccn1)B(O)O [PS-341, bortezomib] | more sensitive | effective by itself | –
3 | Nc1ccn([C@@H]2O[C@H](CO)[C@@H](O)C2(F)F)c(=O)n1 [gemcitabine] | more sensitive | – | not particularly effective
4 | N.N.[Cl][Pt][Cl] [cisplatin] | more sensitive | – | –
